Results taken from publication PMC12631912, “A Multifunctional Molecular Probe for Multimodal Imaging‐Guided Potent Photothermal/Photodynamic Therapy of Endometriosis” (Advanced Science, 2025).

Tests used:
[1] = tested on: EMS lesions; assay: In vivo photoacoustic imaging of EMS lesions; design: species or system BALB/c nude mice; settings: EMS nude mice, ICG 4 µg g^−1 i.v., imaging to 48 h; n = 3
Method: PAI was conducted using a TomoWave LOIS‐3D series photoacoustic imaging system before injection and at 30 min, 5 h, 24 h, and 48 h post‐injection. Photoacoustic image processing and analysis were conducted using LOIS View 3D software and ImageJ 1.53e. ROIs were manually delineated on axial photoacoustic images to quantify lesion signal intensity (SI).

[2] = T1 relaxivity (r1) of probe solutions by MRI; type: physicochemical; settings: in PBS, 3.0 T MRI scanner, room temperature; slope of 1/T1 versus Gd concentration; n = 3 regions of interest
Method: An inversion recovery spin echo sequence was executed with the parameters: repetition time (TR) = 5.27 ms, echo time (TE) = 2.29 ms, field of view (FOV) = 160 mm × 160 mm, acquisition matrix = 336 × 336, acquisition voxel = 0.48 mm × 0.48 mm × 2 mm, slice thickness = 2 mm, reconstruction matrix = 672 × 672, reconstruction voxel = 0.24 mm × 0.24 mm × 2 mm, number of flip angles = 4 (3°, 6°, 9°, 13°), and NSA = 1. Regions of interest (ROI, average size 10 mm^2) were analyzed to acquire the T1 relaxation times. The r 1 was then calculated based on the slope of the linear plot between 1/T1 and Gd concentration, determined through linear least‐squares regression analysis.

[3] = tested on: EMS lesions; assay: In vivo infrared thermography of EMS lesions; design: species or system BALB/c nude mice; settings: EMS nude mice, ICG 500 µg kg^−1 i.v., 1 h post-injection, 808 nm laser 1.0 W cm^−2, within 5 min; n = 3
Method: As shown in previous references,^[ [19] ^] to establish a xenograft EMS model in nude mice, female BALB/c nude mice (5‐6 weeks, 18‐20 g) served as recipients, and female Sprague–Dawley rats (7‐9 weeks, 200–240 g) with regular 4–5 days estrous cycles were selected as donors after a week of acclimatization. Prior to surgery, nude mice received daily intramuscular β‐estradiol 17‐pentanoate (0.25 µg g^−1) for 3 days. The EMS model was induced by subcutaneous transplantation of ≈40 mg of rat uterine fragments into nude mice. The uterine horns from euthanized donors were sterilely collected, bisected, minced, and suspended in DMEM/F12 medium before injection. Nude mice then received β‐estradiol 17‐pentanoate (0.25 µg g^−1) injections every 2 days, and endometriotic lesions reaching 100 mm^3 were used for subsequent experiments.
To investigate the photothermal heating efficacy at lesion sites in EMS mice, in vivo infrared thermography studies were conducted. […] Thermal responses were monitored in real‐time using a digital thermographic camera (Fluke Ti27, IR Fusion Technology, USA). Infrared thermal images were captured, and temperature measurements were recorded. The temporal correlation between temperature elevation and laser irradiation duration was analyzed using AnalyzIR software (4.0.0).

[4] = tested on: EESCs; assay: Cellular internalization of probes by flow cytometry; type: cell-based, human; settings: EESC, in Figure 3g
Method: (§1) Furthermore, the cellular internalization of the probes was quantitatively evaluated using flow cytometry. […] After these incubation periods, the cells were washed three times with PBS, trypsinized, and collected. The harvested cells were then analyzed using an Attune NxT flow cytometer (Invitrogen, USA). The data obtained was analyzed utilizing NovoExpress 1.4.0 software (Agilent, USA).

[5] = tested on: Ishikawa cells; assay: as above; type: cell-based; settings: in Figure 3g
Method: as §1

[6] = tested on: Ishikawa cells; assay: Intracellular ROS generation, DCFH-DA, flow cytometry; type: cell-based; settings: C ICG = 20 µg mL^−1, 4 h, + laser (808 nm, 1.0 W cm^−2, 5 min)
Method: DCFH‐DA was utilized to evaluate the intracellular ROS production induced by molecular probes under laser irradiation. Specifically, the cells (1 × 10^4 per well) were seeded onto confocal dishes and incubated overnight at 37 °C. […] Following this, the cells were carefully rinsed three times with fresh PBS. Subsequently, the cells were irradiated with an 808 nm laser (1.0 W cm^− ^2, 5 min). Intracellular ROS levels were then visualized and analyzed using a CLSM.
Additionally, a quantitative assessment of intracellular ROS production was performed using flow cytometry under the same conditions as the above experimental conditions. […] The cells were then trypsinized and harvested. After exposure to an 808 nm laser (1.0 W cm^− ^2, 5 min), the collected cells were analyzed on an Attune NxT flow cytometer (Invitrogen, USA). The resulting data was analyzed with NovoExpress 1.4.0 software (Agilent, USA).

[7] = ROS generation in solution with DPBF indicator under 808 nm laser; type: physicochemical; settings: C ICG = 10 µg mL^−1 in methanol, DPBF absorbance at 410 nm, 808 nm laser 1.0 W cm^−2, within 10 min
Method: The generation of ROS was quantified using DPBF as a probe. […] The gradual decrease in the UV absorption of DPBF was monitored using a UV–vis spectrophotometer, and the correlation between the UV absorbance values and the laser exposure time was recorded.

[8] = tested on: EESCs; assay: CCK-8 cytotoxicity without laser irradiation; type: cell-based, human; settings: CCK-8, 24 h incubation, ICG concentration up to 300 µg mL^−1
Method: (§2) After 24 h, the medium was replaced with fresh medium containing 10% CCK‐8 reagent and incubated for an additional 2 h. The absorbance at 450 nm was measured using a Synergy 2 multimode microplate reader (BioTek, USA), with the wells without cells serving as blanks. All experiments were performed in triplicate.

[9] = UV absorption and fluorescence emission spectra; type: physicochemical; settings: in PBS, cRGD-ILD C ICG = 10 µg mL^−1, ICG 5 µg/mL
Method: The ^1H NMR spectra were conducted utilizing a Varian Unity 400 MHz Spectrometer ([…]) in a variety of deuterated solvents. ESI‐MS were obtained with a Thermo Scientific LTQ XL mass spectrometer (Thermo, USA). UV absorption spectra were measured by a Unico UV‐2000 UV–vis Spectrophotometer (Shanghai, China). Photoluminescence excitation and emission spectra were recorded using an FSP920‐combined Time Resolved and Steady State Fluorescence Spectrometer (Edinburgh, UK), equipped with a 450‐W xenon lamp. Both the UV and fluorescence spectrophotometers were scanned within the wavelength range of 650–850 nm.

[10] = In vivo fluorescence imaging, off-target effects and clearance in healthy mice; design: species or system BALB/c nude mice
[11] = tested on: Ishikawa cells; assay: CCK-8 cytotoxicity without laser irradiation; type: cell-based; settings: CCK-8, 24 h incubation, ICG concentration up to 300 µg mL^−1
Method: as §2

[12] = C ICG = 2.5 µg mL^−1, 1 h incubation
[13] = C ICG = 2.5 µg mL^−1, 4 h incubation

| Substance | PA signal in lesions over time [1] | T 1 relaxivities (r 1) [2] [mM⁻¹ s⁻¹] | localized (maximum) temperature at the EMS lesion [3] [°C] | internalized probes by flow cytometry [4, 12] [%] | internalized probes by flow cytometry [4, 13] [%] | internalized probes by flow cytometry [5, 12] [%] | internalized probes by flow cytometry [5, 13] [%] | intracellular ROS, normalized fluorescence intensity (DCFH-DA) [6] [%] | reduction in DPBF absorbance (ROS generation) [7] | cell viability without laser irradiation [8] | fluorescence emission peak ([9]; λex = 755 nm) [nm] | absorption peak [9] [nm] | tissue distribution by serial in vivo fluorescence imaging ([10]; healthy BALB/c nude mice, ICG 1000 µg kg^−1 i.v.) | fluorescence signal as % of the 24 h level ([10]; healthy BALB/c nude mice, ICG 1000 µg kg^−1 i.v., within 7 days, n = 3) | ex vivo fluorescence of major organs ([10]; healthy nude mice, 10 days post-injection, heart, liver, spleen, lungs, kidneys) | cell viability without laser irradiation [11] |
| --- | --- | --- | --- | --- | --- | --- | --- | --- | --- | --- | --- | --- | --- | --- | --- | --- |
| ICG‐lys‐DTPA@Gd [ILD] | rapid signal attenuation | 5.37 | 34.5 | 74.68 | 94.41 | 61.98 | 93.22 | 88.54 | ~56% | – | – | – | – | – | – | – |
| c(RGDyK)‐ICG‐lys‐DTPA@Gd (head to tail) [cRGD‐ILD, targeting theranostic probe integrating cRGD peptide, ICG fragment and DTPA@Gd complex] | sustained elevated PA signal intensities at 5 and 24 h | 4.85 | – | – | – | – | – | 94.2 | ≈ 58% | above 90% | 764 | 755 | no specific tissue distribution | ≈ 14.75% | minimal residual fluorescence | above 90% |
